Results on 1 molecule are retold here after US20250134874A1, “PHARMACEUTICAL FORMULATIONS COMPRISING 3-({[(4R)-7-{METHYL[4-(PROPAN-2-YL)PHENYL]AMINO}-3,4-DIHYDRO-2H-1-BENZOPYRAN-4-YL]METHYL}AMINO)PYRIDINE-4-CARBOXYLIC ACID” (TACHYON THERAPEUTICS, INC., priority 2021, published 2025).

The nature of the data set: Sink condition: solubility of API in DI water and SGF. Type of data set: physicochemical. As to conditions: for solubility: thermodynamic from solid, read-out: Final Concentration. As to the method: • 1. 5 mg of API was placed into a glass vial. • 2. Added 0.2 mL of diluent (DI water and SGF) into the vial, then sonicate and vortex to dissolve the API. • 3. If the solution is not clear after 5 minutes, add additional 0.2 mL of diluent into the vial, then sonicate and vortex to dissolve the API. • 4. Repeat step 4 till all API is dissolved. • 5. Calculate the final concentration of API and the maximum dissolvable dose used in dissolution test.

Each structure is given as a SMILES string. Where two headings read alike, the source gives them in different places.

For `CC(C)c1ccc(N(C)c2ccc3c(c2)OCC[C@H]3CNc2cnccc2C(=O)O)cc1` [Compound 1, 3-({[(4R)-7-{methyl[4-(propan-2-yl)phenyl]amino}-3,4-dihydro-2H-1-benzopyran-4-yl]methyl}amino)pyridine-4-carboxylic acid], the “Maximum dissolvable dose used in dissolution test” value (diluent DI water) was 717 mg and the “Maximum dissolvable dose used in dissolution test” value (diluent SGF) was determined as 617 mg. For the same molecule, the solubility reads like this: (simulated gastric fluid, diluent SGF) ≥ 3700 µg/mL; (diluent DI water) ≥ 4300 µg/mL.
